In US8536164B2, “Fused pyridine compounds as casein kinase inhibitors” (Pfizer Inc., priority 2010, dated 2013):
pEC50, pIC50: −log10 of the molar value.

Key:
[1] = molecular target: T1, human CK1Epsilon (Cos 7 cells cotransfected with mouse Per3-GFP) (Homo sapiens, UniProt P49674); assay: CK1 WCA HCS nuclear translocation assay (CK1ε); format: cell-based; conditions: inhibition of mPer3-GFP translocation to the nucleus, overnight exposure, read-out: CK1 ε WCA EC50
T1 construct: His tag of the vector pcDNA4/hisA (only the vector name is printed); expressed in transfected cells; host or cells: Cos 7 cells
Protocol: (§1) CK1 WCA HCS Nuclear Translocation Assay.
(§2) Cos 7 cells were maintained at 37° C. in 5% CO2 in Dulbecco's Modified Eagle Medium (Gibco 11995) supplemented with 10% fetal bovine serum. Log-phase cells were dislodged with 5 min treatment of TrypLE Express (Gibco 12605) and viable cell count was determined with Cedex cell counter. Cells were diluted in DMEM medium to a density of 1.5e5 viable cells/mL in ⅔ of the final volume of final transfected cell mix. Cells were cotransfected with two plasmid DNAs, mouse Per3-GFP (green fluorescent protein) in pd2EGFP-N1 vector and human CKI in pcDNA4/hisA vector (for CK1Epsilon at a ratio of 1:5 respectively; for CK1δ at a ratio of 1:11 respectively), using Lipofectamine 2000 reagent (Invitrogen) according to the manufacturer's recommendations. The transfection mix contained approximately 0.83 μg/mL of DNA and 6 μL/mL of Lipofectamine 2000, in a total of ⅓ of the final transfection volume in Opti-MEM I medium (Invitrogen). After 20 min at rt, the cell mix was combined with the DNA transfection mix, per manufacturer instructions. 50 μL of the transfected cell suspension was dispensed per well by multidrop dispenser into Greiner 384-well Cellcoat (PDL) plates (Greiner #781946).
(§3) Compounds were solubilized in 100% DMSO, diluted with Opti-MEM I to a 4× concentration before addition to plated cells. After overnight exposure at 37° C. in a CO2 incubator, cells were fixed by the addition of 12% paraformaldehyde (Electron Microscopy Sciences, Hatfield, Pa.) in phosphate-buffered saline (PBS) with 20% sucrose to a final concentration of 4%, and then the cells were incubated for 30 min at rt. Fixative was removed, and cells were washed with PBS and then stained with 0.4 μg/ml Hoechst dye (Invitrogen) in blocking buffer containing 4% goat serum (Vector Labs s-1000) and 0.1% TritonX (Sigma T8787) for 1 h. Cells were washed again with PBS and stored at 4° C. in PBS or scanned immediately with the Cellomics ArrayScan VTI. CKIδ dependent nuclear localization of the GFP-tagged mPer3 protein was quantitated using the Cellomics ArrayScan VTI system utilizing the Cytoplasm to Nucleus translocation bioapplication to calculate the Nuclear-Cytoplasmic Intensity difference. Inhibitors of CK1 δ/ε were tested across a dose response curve to evaluate their ability to inhibit mPer3-GFP translocation to the nucleus. Cells with a total intensity of mPER3:GFP expression equal to or greater than 20,000 are included in analysis.

[2] = molecular target: T2, human CK1δ (Cos 7 cells cotransfected with mouse Per3-GFP) (Homo sapiens, UniProt P48730); assay: CK1 WCA HCS nuclear translocation assay (CK1δ); format: cell-based; conditions: inhibition of mPer3-GFP translocation to the nucleus, overnight exposure, read-out: CK1 δ WCA EC50
T2 construct: His tag of the vector pcDNA4/hisA (only the vector name is printed); expressed in transfected cells; host or cells: Cos 7 cells
Protocol: as §1, §2, §3

CKIδ wild type = CKIδ wild type (Homo sapiens, UniProt P48730); assay: CK1δ kinase assay (Kinase-Glo); format: biochemical; conditions: 10 μM ATP, 2 nM CKIδ, 85 min at 25° C.; read-out: CK1 δ IC50
Protocol: (§4) The CK1δ kinase assay was performed in a 40 μl final volume in buffer containing 50 mM Tris, pH 7.5, 10 mM MgCl2, 1 mM dithiothreitol, 100 μg/mL BSA with 10 μM ATP, 2 nM CKIδ wild type, and 42 μM peptide substrate PLSRTLp[…] (Flotow et al., 1990) in the presence of 1 μl of CKIδ inhibitor or 4% DMSO. The reaction was incubated for 85 min at 25° C.; detection was carried out as described for the Kinase-Glo Assay (Promega). Luminescent output was measured on the Perkin Elmer Envision plate reader (PerkinElmer, Waltham, Mass.).

CKI ε wild type = CKI ε wild type (Homo sapiens, UniProt P49674); assay: CK1ε kinase assay (Kinase-Glo); format: biochemical; conditions: 10 μM ATP, 2.5 nM CKI ε, 70 min at 25° C.; read-out: CK1 ε:IC50
Protocol: as §4, with “The CK1ε” for “The CK1δ”, “a 40-μl” for “a 40 μl”, “ATP, 2.5” for “ATP, 2”, “nM CKI ε” for “nM CKIδ”, “of CKI ε” for “of CKIδ”, “for 70” for “for 85”

T2 sequence (P48730 whole entry): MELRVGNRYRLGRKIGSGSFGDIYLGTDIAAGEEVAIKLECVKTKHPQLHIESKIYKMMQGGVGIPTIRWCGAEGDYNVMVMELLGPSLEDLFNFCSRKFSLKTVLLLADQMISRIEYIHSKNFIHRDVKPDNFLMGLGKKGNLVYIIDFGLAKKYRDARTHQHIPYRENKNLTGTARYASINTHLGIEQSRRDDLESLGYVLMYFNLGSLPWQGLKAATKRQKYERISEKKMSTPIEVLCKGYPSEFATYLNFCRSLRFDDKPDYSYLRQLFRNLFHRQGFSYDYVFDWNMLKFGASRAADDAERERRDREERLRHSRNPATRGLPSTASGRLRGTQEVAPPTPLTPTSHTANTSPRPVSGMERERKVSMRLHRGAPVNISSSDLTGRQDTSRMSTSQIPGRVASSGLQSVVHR
Chain of CKIδ wild type (P48730 whole entry): as above
T1 sequence (P49674 whole entry): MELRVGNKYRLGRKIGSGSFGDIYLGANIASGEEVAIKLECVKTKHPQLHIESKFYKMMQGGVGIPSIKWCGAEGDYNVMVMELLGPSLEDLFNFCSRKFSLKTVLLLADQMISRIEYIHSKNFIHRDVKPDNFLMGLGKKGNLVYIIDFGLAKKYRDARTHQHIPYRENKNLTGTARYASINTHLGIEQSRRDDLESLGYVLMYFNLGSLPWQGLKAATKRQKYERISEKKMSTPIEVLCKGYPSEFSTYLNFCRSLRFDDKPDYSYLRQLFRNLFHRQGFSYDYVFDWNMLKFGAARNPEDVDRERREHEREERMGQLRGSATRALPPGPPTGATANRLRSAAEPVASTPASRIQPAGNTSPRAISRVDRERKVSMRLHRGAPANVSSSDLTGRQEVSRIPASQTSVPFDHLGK
Chain of CKI ε wild type (P49674 whole entry): as above

Row | Structure (SMILES) | pEC50 [1] | pEC50 [2] | pIC50 (CKIδ wild type) | pIC50 (CKI ε wild type)
1 | Cn1cc(-c2ccnc3c2CN(C(=O)CC2CC2)C3)c(-c2ccc(F)cc2)n1 [Example 15, 6-(cyclopropylacetyl)-4-[3-(4-fluorophenyl)-1-methyl-1H-pyrazol-4-yl]-6,7-dihydro-5H-pyrrolo[3,4-b]pyridine] | 7.12 | 7.90 | – | –
2 | CCS(=O)(=O)N1Cc2nccc(-c3cn(C)nc3-c3ccc(F)cc3)c2C1 [Example 11, 6-(ethylsulfonyl)-4-[3-(4-fluorophenyl)-1-methyl-1H-pyrazol-4-yl]-6,7-dihydro-5H-pyrrolo[3,4-b]pyridine] | 6.18 | 6.99 | – | –
3 | Cn1cc(-c2ccnc3c2CN(C(=O)C2CC2)C3)c(-c2ccc(F)cc2)n1 [Example 21, 6-(cyclopropylcarbonyl)-4-[3-(4-fluorophenyl)-1-methyl-1H-pyrazol-4-yl]-6,7-dihydro-5H-pyrrolo[3,4-b]pyridine] | 7.08 | 7.74 | – | –
4 | CN1Cc2nccc(-c3cn(C)nc3-c3ccc(Cl)cc3)c2C1=O [Example 3, 4-[3-(4-chlorophenyl)-1-methyl-1H-pyrazol-4-yl]-6-methyl-6,7-dihydro-5H-pyrrolo[3,4-b]pyridin-5-one] | 6.46 | 7.11 | – | –
5 | CC(C)C(=O)N1Cc2nccc(-c3cn(C)nc3-c3ccc(F)cc3)c2C1 [Example 18, 4-[3-(4-fluorophenyl)-1-methyl-1H-pyrazol-4-yl]-6-isobutyryl-6,7-dihydro-5H-pyrrolo[3,4-b]pyridine] | 6.71 | 7.40 | – | –
6 | COCC(=O)N1Cc2nccc(-c3cn(C)nc3-c3ccc(F)cc3)c2C1 [Example 17, 4-[3-(4-fluorophenyl)-1-methyl-1H-pyrazol-4-yl]-6-(methoxyacetyl)-6,7-dihydro-5H-pyrrolo[3,4-b]pyridine] | 6.68 | 7.32 | – | –
7 | Cn1cc(-c2ccnc3c2CN(C(=O)Cc2ncccn2)C3)c(-c2ccc(F)cc2)n1 [Example 20, 4-[3-(4-fluorophenyl)-1-methyl-1H-pyrazol-4-yl]-6-(pyrimidin-2-ylacetyl)-6,7-dihydro-5H-pyrrolo[3,4-b]pyridine] | 6.44 | 7.07 | – | –
8 | Cn1cc(-c2ccnc3c2CN(C(=O)C2CCOCC2)C3)c(-c2ccc(F)cc2)n1 [Example 19, 4-[3-(4-fluorophenyl)-1-methyl-1H-pyrazol-4-yl]-6-(tetrahydro-2H-pyran-4-ylcarbonyl)-6,7-dihydro-5H-pyrrolo[3,4-b]pyridine] | 6.25 | 7.26 | – | –
9 | CC1CNCc2nccc(-c3cn(C)nc3-c3ccc(F)cc3)c2O1 (racemic) [Example 8, 9-[3-(4-fluorophenyl)-1-methyl-1H-pyrazol-4-yl]-2-methyl-2,3,4,5-tetrahydropyrido[2,3-f][1,4]oxazepine] | 6.66 | 7.33 | – | –
10 | Cn1cc(-c2ccnc3c2CN(C(=O)OCc2ccccc2)C3)c(-c2ccc(F)cc2)n1 [Example 22, benzyl 4-[3-(4-fluorophenyl)-1-methyl-1H-pyrazol-4-yl]-5,7-dihydro-6H-pyrrolo[3,4-b]pyridine-6-carboxylate] | 6.56 | 7.29 | – | –
11 | Cn1cc(-c2ccnc3c2C(=O)N([C@H]2CCOC2=O)C3)c(-c2ccc(F)cc2)n1 [Example 46, 4-[3-(4-fluorophenyl)-1-methyl-1H-pyrazol-4-yl]-6-[(3S)-2-oxotetrahydrofuran-3-yl]-6,7-dihydro-5H-pyrrolo[3,4-b]pyridin-5-one] | – | 5.84 | 7.16 | 6.42
12 | Cn1cc(-c2ccnc3c2CCC3)c(-c2ccc(F)cc2)n1 [Example 23, 4-[3-(4-fluorophenyl)-1-methyl-1H-pyrazol-4-yl]-6,7-dihydro-5H-cyclopenta[b]pyridine] | – | 6.67 | 7.60 | 6.80
13 | Cn1cc(-c2ccnc3c2C(=O)N(CC2CC2)C3)c(-c2ccc(F)cc2)n1 [Example 37, 6-(cyclopropylmethyl)-4-[3-(4-fluorophenyl)-1-methyl-1H-pyrazol-4-yl]-6,7-dihydro-5H-pyrrolo[3,4-b]pyridin-5-one] | – | 7.13 | 7.89 | 7.08
14 | Cc1ccc(CN2Cc3nccc(-c4cn(C)nc4-c4ccc(F)cc4)c3C2=O)cn1 [Example 52, 4-[3-(4-fluorophenyl)-1-methyl-1H-pyrazol-4-yl]-6-[(6-methylpyridin-3-yl)methyl]-6,7-dihydro-5H-pyrrolo[3,4-b]pyridin-5-one] | – | 7.22 | 7.72 | 6.90
15 | Cn1cc(-c2ccnc3c2CN(Cc2ccccc2)C3)c(-c2ccc(F)cc2)n1 [Example 6, 6-benzyl-4-[3-(4-fluorophenyl)-1-methyl-1H-pyrazol-4-yl]-6,7-dihydro-5H-pyrrolo[3,4-b]pyridine] | – | 6.69 | 7.21 | 6.53
16 | Cn1cc(CCN2Cc3nccc(-c4cn(C)nc4-c4ccc(F)cc4)c3C2=O)cn1 [Example 33, 4-[3-(4-fluorophenyl)-1-methyl-1H-pyrazol-4-yl]-6-[2-(1-methyl-1H-pyrazol-4-yl)ethyl]-6,7-dihydro-5H-pyrrolo[3,4-b]pyridin-5-one] | – | 6.63 | < 7.12 | < 6.64
17 | Cn1cc(-c2ccnc3c2C(=O)N([C@H]2[C@@H]4COC[C@@H]42)C3)c(-c2ccc(F)cc2)n1 [Example 45, 4-[3-(4-fluorophenyl)-1-methyl-1H-pyrazol-4-yl]-6-[(1R,5S,6r)-3-oxabicyclo[3.1.0]hex-6-yl]-6,7-dihydro-5H-pyrrolo[3,4-b]pyridin-5-one] | – | 6.78 | 7.71 | 7.06
18 | COC(=O)C1(N2Cc3nccc(-c4cn(C)nc4-c4ccc(F)cc4)c3C2=O)CC1 [Example 31, methyl 1-{4-[3-(4-fluorophenyl)-1-methyl-1H-pyrazol-4-yl]-5-oxo-5,7-dihydro-6H-pyrrolo[3,4-b]pyridin-6-yl}cyclopropanecarboxylate] | – | 6.52 | 7.32 | 6.73
19 | Cc1noc(CCN2Cc3nccc(-c4cn(C)nc4-c4ccc(F)cc4)c3C2=O)n1 [Example 38, 4-[3-(4-fluorophenyl)-1-methyl-1H-pyrazol-4-yl]-6-[2-(3-methyl-1,2,4-oxadiazol-5-yl)ethyl]-6,7-dihydro-5H-pyrrolo[3,4-b]pyridin-5-one] | – | 7.15 | 7.73 | 7.04
20 | CC(C)CN1Cc2nccc(-c3cn(C)nc3-c3ccc(F)cc3)c2C1=O [Example 39, 4-[3-(4-fluorophenyl)-1-methyl-1H-pyrazol-4-yl]-6-isobutyl-6,7-dihydro-5H-pyrrolo[3,4-b]pyridin-5-one] | – | 6.73 | 7.31 | 6.62
21 | CCC[C@@H](C)N1Cc2nccc(-c3cn(C)nc3-c3ccc(F)cc3)c2C1=O [Example 47, 4-[3-(4-fluorophenyl)-1-methyl-1H-pyrazol-4-yl]-6-[(1R)-1-methylbutyl]-6,7-dihydro-5H-pyrrolo[3,4-b]pyridin-5-one] | – | 7.05 | < 6.80 | < 6.37
